Data set [1] in a line: Hydrolysis assay of peptide-drug conjugates in rat plasma (free drug by LC/MS). To be noted: 37° C. In kind it is in vitro ADME. The procedure: Peptide-drug conjugate peptide(SEQ ID NO: 105)-DMA-dCIC was incubated in rat plasma at 37° C. Samples were removed at regular intervals, processed by solvent extraction, and analyzed by LC/MS to quantitate free dCIC. 11 time-points were measured between 5 min and 56 hours with 3 replicates per time point. The assay was repeated two times.
In order to determine hydrolysis rates, conjugates can be diluted in PBS, rat plasma, or human plasma and incubated at 37 degrees. Samples can be taken at designated time-points (e.g., 1, 2, 3, 5, 10, 15, 20, 25, 30, 45, 60, or 90 minutes and/or hours after administration). Internal standards such as triamcinolone acetonide (TAA) can be added as an internal standard, and then active agent/TAA can be extracted using acetonitrile, for example. The samples can be dried down, reconstituted, and analyzed by LC/MS. Data can be normalized using Dex AUC/TAA AUC. Percent hydrolysis can be calculated using the average ratio for active agent AUC/TAA AUC at a time point of maximal drug release. A general method can include using a lyophilized, purified peptide-drug conjugates reconstituted in DMSO following production to generate stock solution at 20 mg/mL. Each conjugate stock can be brought to 0.25 mg/mL in each hydrolysis condition (1×DPBS, human plasma and rat plasma) in triplicate and rocked at 37° C. To quantitate free active agent, 100 μl of the hydrolyzed conjugate solution can be transferred into 1 mL acetonitrile at 4° C. at which time all plasma proteins and intact conjugates can precipitate. This can be performed repeatedly to generate a series of time points (0 hr, 0.5 hr, 1 hr, 2 hr, 4 hr, 6 hr, 8 hr, 24 hr, 32 hr). The acetonitrile solution can be spun at 17,000 g for 5 minutes, and the supernatant removed and added to a 96 well block. The pellet can then be resuspended in 500 μl acetonitrile and re-pelleted as before. The supernatant can be removed and added to the same well in the block. Samples can be prepared for analysis by drying under a nitrogen stream followed by reconstitution in 110 μl 45:55 ACN:Citrate 10 mM pH 5.5. To ensure optimal recovery the block can be shaken via plate shaker at 7,000 rpm for 5 minutes during the reconstitution step. Prior to LC/MS the samples can be transferred to a 96 well plate and centrifuged at 6,500 g for 15 minutes. Analysis can be performed on an Agilent 1260 Infinity series HPLC with inline 6120 single quad MS using acetonitrile, water (+0.1% TFA) gradient (shown below) on an InfinityLab Poroshell SB-C18 column. Quantification of free active agent (or drug) can be achieved through integration of active agent peaks of the TIC.
Lyophilized, purified peptide-drug conjugates were reconstituted in DMSO following production to generate stock solution at 20 mg/mL. Each conjugate stock was brought to 0.25 mg/mL in each hydrolysis condition (1×DPBS, human plasma and rat plasma) in triplicate and rocked at 37° C.
To quantitate free dexamethasone (Dex), 100 μl of the hydrolyzed conjugate solution was transferred into 1 mL acetonitrile at 4° C. at which time all plasma proteins and intact conjugates precipitated. This was performed repeatedly to generate a series of time points (0 hr, 0.5 hr, 1 hr, 2 hr, 4 hr, 6 hr, 8 hr, 24 hr, 32 hr). The corticosteroid triamcinolone acetonide (25 μl, 0.1 mg/mL in 45:55 ACN:Citrate 10 mM pH 5.5) was supplemented into the acetonitrile solution as an internal standard. The acetonitrile solution was spun at 17,000 g for 5 minutes, and the supernatant removed and added to a 96 well block. The pellet was resuspended in 500 μl acetonitrile and re-pelleted as before. The supernatant was removed and added to the same well in the block.
Samples were prepared for analysis by drying under a nitrogen stream followed by reconstitution in 110 μl 45:55 ACN:Citrate 10 mM pH 5.5. To ensure optimal recovery the block was shaken via plate shaker at 7,000 rpm for 5 minutes during the reconstitution step. […]

Data set [2] can be described thus: IL-1β challenge rat model, dose-ranging study: CBC, organ weights, tolerability. In kind it is in vivo, rats. Conditions: 7 hours post administration. The procedure:
IL-6 was measured in knee lavage fluid using a Luminex assay and levels were normalized to total protein in the lavage fluid (FIG. 24). Assessment of the PD inflammatory marker IL-6 in the knee joints of rats challenged with IL-1β was performed. Terminal synovial fluid was collected from all animals and analyzed by Luminex 200 for IL-6 cytokine concentrations using EMD Milliplex MAP Rat Cytokine/Chemokine Magnetic Panel ([…]-65K). […] Doses are listed as nmol/kg The masses of these doses are given below in TABLE 16. Two hours and forty-five minutes (i.e., 2.75 hrs) after administration of the test agents, animals were gently heated and blood was drawn from the tail vein for CBC analysis. Animals were then anesthetized with inhaled isoflurane and injected with 30 ng of IL-1β into the right knee (except for no IL-1β group). Four hours after administration of IL-1β (seven hours after administration of test agent) the animals were euthanized. Blood was drawn for a second CBC analysis and the right knee was lavaged for detection of IL-6 in the lavage fluid using a Luminex assay. Thymus and spleen were harvested and their organ weights determined.
In the same animals for which IL-6 secretion was measured, CBC data (e.g., lymphocyte counts) were also analyzed (FIG. 25) at an early time-point, 2.75 hrs post administration of the test article (FIG. 25A), and at euthanasia 7 hrs post administration (FIG. 25B). All treatments were administered as described above for the measurement of IL-6 secretion.
All treatments and test articles were administered as described above, except for an additional treatment group that received 510 nmol/kg of the peptide-drug conjugate peptide(SEQ ID NO: 105)-DMA-dCIC.

Another data set has as its system CIA rats. It counts as in vivo. The procedure:
Ankle diameter measurements were recorded daily starting on induction day 9 and continuing for the duration of the study. […] Each treatment was administered on the day of enrollment (study day 0) and repeated daily for 7 days (study day 6). Rats were euthanized 3 h after the final dose and blood and organs were collected for testing.

Setting [3] is: in rat plasma, free Dex, read-out: Hydrolysis half-life (converted).
The mark [4] stands for this setting: 0.05 mg/kg daily for 7 days, study day 6.

Like-named read-outs stand apart in the source and are kept apart here. Positions of bridges follow the written chain, without caps; N, C: chain ends. Residues, ends and D or L forms follow the SMILES beside them. *: point of attachment. X6 = C[C@@H]1C[C@H]2[C@@H]3CCC4=CC(=O)C=C[C@]4(C)[C@@]3(F)[C@@H](O)C[C@]2(C)[C@@]1(O)C(=O)COC(=O)CC1(CC(=O)*)CCCC1; X5 = C[C@@H]1C[C@H]2[C@@H]3CCC4=CC(=O)C=C[C@]4(C)[C@@]3(F)[C@@H](O)C[C@]2(C)[C@@]1(O)C(=O)COC(=O)CCCCC(=O)*

A word on the half-life: it is the time in which the quantity being followed falls by half. With `CC[C@H](C)[C@@H]1NC(=O)[C@@H]2CSSC[C@H](NC(=O)[C@H](CCCNC(=N)N)NC(=O)[C@@H](NC(=O)[C@H](CC(N)=O)NC(=O)[C@@H](NC(=O)[C@@H]3CCCN3C(=O)[C@@H](NC(=O)CNC(=O)[C@H](CO)NC(=O)CNC(=O)CCCCC(=O)OCC(=O)[C@@]3(O)[C@H](C)C[C@H]4[C@@H]5CCC6=CC(=O)C=C[C@]6(C)[C@@]5(F)[C@@H](O)C[C@@]43C)C(C)C)[C@@H](C)CC)C(C)C)C(=O)N[C@@H](CCCNC(=N)N)C(=O)NCC(=O)N[C@@H](CO)C(=O)N[C@@H](CCCNC(=N)N)C(=O)N[C@@H](CC(=O)O)C(=O)N[C@H]3CSSC[C@H](NC(=O)[C@H](CCCNC(=N)N)NC(=O)[C@H](CO)NC(=O)[C@H](CC(N)=O)NC1=O)C(=O)N[C@@H](Cc1c[nH]cn1)C(=O)N[C@H](C(=O)N[C@H](C(=O)N1CCC[C@H]1C(=O)O)[C@@H](C)O)CSSC[C@H](NC(=O)[C@@H]1CCCN1C(=O)[C@H](CC(=O)O)NC(=O)[C@H](CC(C)C)NC3=O)C(=O)N[C@@H](CCCNC(=N)N)C(=O)N[C@@H](CCCNC(=N)N)C(=O)N[C@@H](C)C(=O)NCC(=O)N[C@@H](CCSC)C(=O)N[C@@H](CCCNC(=N)N)C(=O)N[C@@H](Cc1ccccc1)C(=O)NCC(=O)N[C@@H](CCCNC(=N)N)C(=O)N2` [Compound 24, Peptide(SEQ ID NO: 105)-adipic acid-Dex] (X5-GSGVPINVRCRGSRDCLDPCRRAGMRFGRCINSRCHCTP-OH; disulfide 10-30, 16-35, 20-37 (inferred); C-terminus assumed), the half-life at 0.25 mg/mL in data set [1] (Rat Plasma, release of free Dex, time points to 32 hr, read-out: Half-life (hours) as measured in the hydrolysis experiments (converted)) was 2.8 h; in data set [1] (setting [3]), 2.6 h.

`CC[C@H](C)[C@@H]1NC(=O)[C@@H]2CSSC[C@H](NC(=O)[C@H](CCCNC(=N)N)NC(=O)[C@@H](NC(=O)[C@H](CC(N)=O)NC(=O)[C@@H](NC(=O)[C@@H]3CCCN3C(=O)[C@@H](NC(=O)CNC(=O)[C@H](CO)NC(=O)CNC(=O)CC3(CC(=O)OCC(=O)[C@@]4(O)[C@H](C)C[C@H]5[C@@H]6CCC7=CC(=O)C=C[C@]7(C)[C@@]6(F)[C@@H](O)C[C@@]54C)CCCC3)C(C)C)[C@@H](C)CC)C(C)C)C(=O)N[C@@H](CCCNC(=N)N)C(=O)NCC(=O)N[C@@H](CO)C(=O)N[C@@H](CCCNC(=N)N)C(=O)N[C@@H](CC(=O)O)C(=O)N[C@H]3CSSC[C@H](NC(=O)[C@H](CCCNC(=N)N)NC(=O)[C@H](CO)NC(=O)[C@H](CC(N)=O)NC1=O)C(=O)N[C@@H](Cc1c[nH]cn1)C(=O)N[C@H](C(=O)N[C@H](C(=O)N1CCC[C@H]1C(=O)O)[C@@H](C)O)CSSC[C@H](NC(=O)[C@@H]1CCCN1C(=O)[C@H](CC(=O)O)NC(=O)[C@H](CC(C)C)NC3=O)C(=O)N[C@@H](CCCNC(=N)N)C(=O)N[C@@H](CCCNC(=N)N)C(=O)N[C@@H](C)C(=O)NCC(=O)N[C@@H](CCSC)C(=O)N[C@@H](CCCNC(=N)N)C(=O)N[C@@H](Cc1ccccc1)C(=O)NCC(=O)N[C@@H](CCCNC(=N)N)C(=O)N2` [Compound 26, Peptide(SEQ ID NO: 105)-3,3,-tetramethylene-glutaric acid-Dex] (X6-GSGVPINVRCRGSRDCLDPCRRAGMRFGRCINSRCHCTP-OH; disulfide 10-30, 16-35, 20-37 (inferred); C-terminus assumed): the half-life at 0.25 mg/mL in data set [1] (setting [3]) is 1.1 h.

In the case of `C[C@@H]1C[C@H]2[C@@H]3CCC4=CC(=O)C=C[C@]4(C)[C@@]3(F)[C@@H](O)C[C@]2(C)[C@@]1(O)C(=O)COP(=O)(O)O` [DexSP, Dexamethasone sodium phosphate, reference compound], the “spleen and thymus weights at euthanasia” value in data set [2] is given as “reduction in the weight of both organs”. Besides, the “ankle diameter on study day 6 versus day 0, compared to vehicle” value in the data set with CIA rats (0.05 mg/kg) is “statistically different than vehicle”. Moreover, in the data set with CIA rats (setting [4]), the “plasma lymphocyte counts as compared to vehicle” value is “significantly reduced”, the “spleen weight as compared to vehicle” value is “significantly reduced” and the “thymus weight as compared to vehicle” value is “significantly reduced”. Further, in the data set with CIA rats (highest dose of 0.05 mg/kg daily for 7 days), the ankle inflammation entry is “effective at reducing ankle inflammation”. Also, the ankle inflammation entry with CIA rats (lower doses (0.001, 0.005, 0.01 mg/kg) daily for 7 days) is “indistinguishable from vehicle”.

These data come from patent publication US20210252159A1, “CONJUGATES OF CARTILAGE-HOMING PEPTIDES” (priority 2018, published 2021).
